According to patent US20070167432A1, “Tricyclic triazolobenzapine derivative produced as novel crystalline substance” (MEIJI SEILA KAISHA, LTD, priority 2003, published 2007):

Key:
[1] = Solubility test in water (37° C.), Compound A concentration of filtrate by HPLC; type: physicochemical
Description: By using, as test samples, the β-type crystalline material obtained in Example 1 and the α-type crystalline material obtained in Comparative Example 1, a water (37° C.) solubility test was carried out. The test sample (about 10 mg) was added to 100 mL of water (37° C.), and the mixture was stirred at 1000 rpm. The mixture was sampled at some points of time, and each sample taken out was filtered through a membrane filter (Millex LG-13 manufactured by Millipore Corp, Japan). The compound A concentration of each filtrate was determined with high-performance liquid chromatography (HPLC). The measurement conditions were as follows:
HPLC: LC-10vp series (manufactured by Shimadzu Corp. Japan)
System controller: CBM-10A
Measurement wavelength: 246 nm
Column: Mightysil RP-18 GP 4.6×250 mm (manufactured by Kanto Chemical Co., Inc., Japan)
Column temperature: Fixed temperature at around 40° C.
Mobile phase: Mixture of methanol and water (55:45)
Amount of influent: 10 μL
Internal standard solution: Acetonitrile solution of propyl paraoxybenzoate (conc.200 μg/mL)

[2] = Absorbability test: oral administration to cynomolgus monkeys, Compound B in blood plasma as indicator; type: in vivo
Description: The α-type crystalline material obtained in Comparative Example 1 or the β-type crystalline material obtained in Example 1 was suspended in a 1 wt. % aqueous solution of methyl cellulose. Each suspension was orally administered to a group of cynomolgus monkeys that had not been fed one overnight (5 mg/kg, n=5). The two samples were compared, in terms of the change of Compound B concentration of blood plasma and the area under the medicine concentration in blood plasma-time curve (AUC), to evaluate the difference in absorbability between the samples. The Compound B concentration of blood plasma derived from the blood sample was determined in the following manner.
By centrifugally separating the blood (1 mL) taken from a saphenous vein (4° C., 3000 rpm, 10 minutes) in the presence of heparin, blood plasma was obtained. To this blood plasma (100 μL), a methanol solution containing an internal standard substance (sodium 7-methyl-4(5H),10-dioxo-2H-1,2,3-triazolo [4,5-c][1]benzazepine) (100 ng/mL, 100 μL) and methanol (400 μL) were added, and the mixture was stirred and was then subjected to centrifugal separation (4° C., 10000 rpm, 5 minutes). Methanol (300 μL) was added again to the supernatant, and the mixture was centrifugally separated under the same conditions as the previous manner. […]
Fluorescence detection wavelengths: Ex 270 nm, Em 466 nm […]

solubility in solvents such as water ([1]; background statement from applicant's experiments, solvents such as water) | absorption into organisms ([2]; background statement, administered as it is) | water solubility compared with the α-type crystalline material ([1]; water 37° C.) | Compound B concentration of blood plasma compared with the α-type-crystalline-material-administered group ([2]; cynomolgus monkeys, fasted overnight, oral 5 mg/kg, suspension in 1 wt. % aqueous methyl cellulose, n=5, FIG. 6) | Structure (SMILES)
sparingly soluble | cannot be easily absorbed | – | – | COc1cc2[nH]c(=O)c3nn(C(OC(=O)OC(C)C)C(C)C)nc3c(=O)c2cc1OC (stereo not drawn) [α-type crystalline material, 2-(1-Isopropoxycarbonyloxy-2-methylpropyl)-7,8-dimethoxy-4(5H),10-dioxo-2H-1,2,3-triazolo[4,5-c][1]benzazepine]
– | – | higher | higher values | COc1cc2[nH]c(=O)c3nn(C(OC(=O)OC(C)C)C(C)C)nc3c(=O)c2cc1OC (stereo not drawn) [β-type crystalline material, 2-(1-Isopropoxycarbonyloxy-2-methylpropyl)-7,8-dimethoxy-4(5H),10-dioxo-2H-1,2,3-triazolo[4,5-c][1]benzazepine]
